Source: PubChem BioAssay (NCI)
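Method: 48-hour compound exposure of cells in 96-well plates, five concentrations, linear interpolation of endpoints. GI50: concentration for 50% inhibition of growth. TGI: total growth inhibition.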

Tests used:
Assay in all cases: NCI anticancer screen, dose series, 48 h
NCI-H23 lung = system: NCI-H23 lung
SR leukemia = system: SR leukemia
LOX IMVI melanoma = system: LOX IMVI melanoma
SF-268 CNS = system: SF-268 CNS
NCI-H226 lung = system: NCI-H226 lung
SK-OV-3 ovarian = system: SK-OV-3 ovarian
UO-31 renal = system: UO-31 renal
NCI/ADR-RES ovarian = system: NCI/ADR-RES ovarian
BT-549 breast = system: BT-549 breast
NCI-H522 lung = system: NCI-H522 lung

## N#CCN1C(=O)c2cc([N+](=O)[O-])cc3cc([N+](=O)[O-])cc(c23)C1=O
NCI-H23 lung
  TGI: 32.9 µM
SR leukemia
  TGI: 12.6 µM
LOX IMVI melanoma
  TGI: 18.8 µM
SF-268 CNS
  TGI: 48.8 µM
NCI-H226 lung
  TGI: 49.9 µM
SK-OV-3 ovarian
  TGI: > 100 µM
UO-31 renal
  TGI: 32 µM

## Cn1ccnc1Oc1ccc(Cl)cc1
NCI-H23 lung
  TGI: 39.5 µM
NCI/ADR-RES ovarian
  TGI: 49 µM
LOX IMVI melanoma
  TGI: 36.6 µM
BT-549 breast
  TGI: 65.7 µM
SF-268 CNS
  TGI: 99.4 µM
NCI-H226 lung
  TGI: 44.3 µM
NCI-H522 lung
  TGI: 11.6 µM
SK-OV-3 ovarian
  TGI: > 100 µM
UO-31 renal
  TGI: 23.9 µM

## CCOC(=O)C1Nc2ccccc2[C@H]2OCC[C@@H]12 (stereo not given in full)
NCI-H23 lung
  TGI: > 100 µM
LOX IMVI melanoma
  TGI: > 100 µM
SF-268 CNS
  TGI: > 100 µM
NCI-H226 lung
  TGI: > 100 µM
NCI-H522 lung
  TGI: > 100 µM
SK-OV-3 ovarian
  TGI: > 100 µM

## N#CCCNc1nonc1-c1nc2ccccc2n1CC(=O)c1ccc(NC(=O)[C@@H](N)CCCCN)cc1
NCI-H23 lung
  GI50: 0.0483 µM
SR leukemia
  GI50: 0.025 µM
  TGI: > 100 µM
LOX IMVI melanoma
  GI50: 0.0513 µM
  TGI: > 100 µM
BT-549 breast
  GI50: 0.0311 µM
SF-268 CNS
  GI50: 0.071 µM
  TGI: > 100 µM
NCI-H226 lung
  TGI: > 100 µM
NCI-H522 lung
  GI50: 0.0363 µM
  TGI: > 100 µM
SK-OV-3 ovarian
  GI50: 0.0313 µM
  TGI: > 100 µM
UO-31 renal
  GI50: 0.282 µM
  TGI: > 100 µM

## O=C1OC(=O)c2c1c(-c1ccccc1)nc1ccccc21
NCI-H23 lung
  TGI: > 100 µM
LOX IMVI melanoma
  TGI: > 100 µM
SF-268 CNS
  TGI: > 100 µM
NCI-H226 lung
  TGI: > 100 µM
NCI-H522 lung
  TGI: > 100 µM
SK-OV-3 ovarian
  TGI: > 100 µM
UO-31 renal
  TGI: > 100 µM

## CCOC(=O)c1cc2c(cc1Cl)SC(=Nc1ccccc1)N(S(=O)(=O)c1ccc(Br)s1)S2(=O)=O
NCI-H23 lung
  GI50: 18.3 µM
  TGI: 42.2 µM
NCI/ADR-RES ovarian
  GI50: 17.5 µM
  TGI: 37.6 µM
LOX IMVI melanoma
  GI50: 11.2 µM
  TGI: 24.1 µM
BT-549 breast
  GI50: 17.3 µM
  TGI: 34.8 µM
SF-268 CNS
  GI50: 19.2 µM
  TGI: 46.5 µM
NCI-H226 lung
  GI50: 16.2 µM
  TGI: 35 µM
NCI-H522 lung
  GI50: 26.4 µM
  TGI: 74.9 µM
SK-OV-3 ovarian
  GI50: 34.5 µM
  TGI: > 100 µM
UO-31 renal
  GI50: 22.1 µM
  TGI: 53.9 µM

## O=C(O)c1ccccc1NC(=S)c1ccccc1
NCI-H23 lung
  TGI: > 100 µM
NCI/ADR-RES ovarian
  TGI: > 100 µM
LOX IMVI melanoma
  TGI: > 100 µM
BT-549 breast
  TGI: > 100 µM
SF-268 CNS
  TGI: > 100 µM
NCI-H522 lung
  TGI: 39.8 µM
SK-OV-3 ovarian
  TGI: > 100 µM
UO-31 renal
  TGI: > 100 µM

## O=C(O)CCNS(=O)(=O)c1ccc([N+](=O)[O-])cc1
NCI-H23 lung
  TGI: > 100 µM
LOX IMVI melanoma
  TGI: > 100 µM
SF-268 CNS
  TGI: > 100 µM
NCI-H226 lung
  TGI: > 100 µM
NCI-H522 lung
  TGI: > 100 µM
SK-OV-3 ovarian
  TGI: > 100 µM
UO-31 renal
  TGI: > 100 µM

## NC1=NC(=O)C(CC(=O)Nc2ccc(Cl)cc2Cl)S1 (stereo not given)
NCI-H23 lung
  TGI: > 100 µM
LOX IMVI melanoma
  TGI: > 100 µM
SF-268 CNS
  TGI: > 100 µM
SK-OV-3 ovarian
  TGI: > 100 µM
UO-31 renal
  TGI: > 100 µM

## COc1cc2cc(Oc3ccc(NC(=O)c4ccc(Cl)c(Cl)c4)cc3)c(C)nc2cc1OC
NCI-H23 lung
  GI50: 6.68 µM
  TGI: > 100 µM
SR leukemia
  GI50: 19.6 µM
  TGI: > 100 µM
LOX IMVI melanoma
  GI50: > 100 µM
  TGI: > 100 µM
BT-549 breast
  GI50: 3.91 µM
  TGI: > 100 µM
SF-268 CNS
  GI50: > 100 µM
  TGI: > 100 µM
NCI-H226 lung
  GI50: > 100 µM
  TGI: > 100 µM
NCI-H522 lung
  GI50: 6.27 µM
  TGI: > 100 µM
SK-OV-3 ovarian
  GI50: > 100 µM
  TGI: > 100 µM
UO-31 renal
  GI50: 8.44 µM
  TGI: > 100 µM

## CC1=C(CC2C(=O)N(c3ccccc3)S(=O)(=O)NC2C)C(=O)N(c2ccccc2)S(=O)(=O)N1C (stereo not given)
NCI-H23 lung
  TGI: > 100 µM
SR leukemia
  TGI: > 100 µM
LOX IMVI melanoma
  TGI: > 100 µM
SF-268 CNS
  TGI: > 100 µM
NCI-H226 lung
  TGI: > 100 µM
NCI-H522 lung
  TGI: > 100 µM
SK-OV-3 ovarian
  TGI: > 100 µM
UO-31 renal
  TGI: > 100 µM

## CC(=O)/C(=C\c1ccccc1O)C(=O)Nc1ccccc1C
NCI-H23 lung
  TGI: 37.2 µM
SR leukemia
  TGI: 48.1 µM
LOX IMVI melanoma
  TGI: 27.6 µM
SF-268 CNS
  TGI: > 100 µM
NCI-H226 lung
  TGI: 62.4 µM
SK-OV-3 ovarian
  TGI: > 100 µM
UO-31 renal
  TGI: 31 µM

## O=C(c1ccccc1)c1c(CC(O)c2ccncc2)n(C(=O)c2ccccc2)c2ccccc12 (stereo not given)
NCI-H23 lung
  TGI: 35 µM
SR leukemia
  TGI: 39.5 µM
SF-268 CNS
  TGI: 49.3 µM
NCI-H226 lung
  TGI: 30.8 µM
NCI-H522 lung
  TGI: 29.7 µM
UO-31 renal
  TGI: 31.7 µM

## COc1cc(C2(C)SCCCS2)cc(OC)c1OC
NCI-H23 lung
  TGI: > 100 µM
SR leukemia
  TGI: > 100 µM
LOX IMVI melanoma
  TGI: > 100 µM
SF-268 CNS
  TGI: > 100 µM
NCI-H226 lung
  TGI: > 100 µM
NCI-H522 lung
  TGI: > 100 µM
SK-OV-3 ovarian
  TGI: > 100 µM
UO-31 renal
  TGI: > 100 µM

## CC1=C(C(=O)Nc2ccc(Cl)c(Cl)c2)C(c2ccc([N+](=O)[O-])cc2)C(C(=O)Nc2ccc(Cl)c(Cl)c2)=C(C)N1
NCI-H23 lung
  TGI: 5.98 µM
LOX IMVI melanoma
  TGI: 4.02 µM
SF-268 CNS
  TGI: 14.8 µM
NCI-H226 lung
  TGI: 11.6 µM
NCI-H522 lung
  TGI: 8.85 µM
SK-OV-3 ovarian
  TGI: 24.8 µM
UO-31 renal
  TGI: 10.6 µM

## N#CCCC1(CCC#N)CCCCCCCCC(CCC#N)(CCC#N)C(O)C1O (stereo not given)
NCI-H23 lung
  TGI: > 100 µM
NCI/ADR-RES ovarian
  TGI: > 100 µM
LOX IMVI melanoma
  TGI: > 100 µM
SF-268 CNS
  TGI: > 100 µM
NCI-H226 lung
  TGI: > 100 µM
NCI-H522 lung
  TGI: > 100 µM
SK-OV-3 ovarian
  TGI: > 100 µM

## N#CNc1nc(N)c(-c2ccc(Cl)cc2)c(C(=O)Nc2nccs2)n1
NCI-H23 lung
  TGI: > 100 µM
LOX IMVI melanoma
  TGI: > 100 µM
SF-268 CNS
  TGI: > 100 µM
NCI-H226 lung
  TGI: > 100 µM
NCI-H522 lung
  TGI: > 100 µM
UO-31 renal
  TGI: > 100 µM

## COc1ccc(-c2cc(=O)c3c(O)cccc3o2)c(OC)c1OC
NCI-H23 lung
  TGI: > 100 µM
LOX IMVI melanoma
  TGI: > 100 µM
SF-268 CNS
  TGI: > 100 µM
NCI-H226 lung
  TGI: > 100 µM
NCI-H522 lung
  TGI: > 100 µM
SK-OV-3 ovarian
  TGI: > 100 µM

## C[n+]1c2ccccc2nc2c(N)cc(N)cc21
NCI-H23 lung
  GI50: 5.13 µM
  TGI: 26.6 µM
NCI/ADR-RES ovarian
  GI50: 83.3 µM
  TGI: > 100 µM
LOX IMVI melanoma
  GI50: 18 µM
  TGI: 94 µM
BT-549 breast
  GI50: 2.62 µM
  TGI: 12.5 µM
SF-268 CNS
  GI50: 0.712 µM
  TGI: 13.6 µM
NCI-H226 lung
  GI50: 8.41 µM
  TGI: > 100 µM
SK-OV-3 ovarian
  GI50: 25.8 µM
  TGI: > 100 µM
UO-31 renal
  GI50: 26.2 µM
  TGI: > 100 µM

## C=C1[C@@H](O)O[C@H]2[C@H]1C[C@H](OC(C)=O)[C@]13C(=O)O[C@H]4C[C@](C)(O)[C@H]([C@H]41)C31C=C(C)[C@]2(O)O1
SR leukemia
  GI50: 40.9 µM
  TGI: > 100 µM
NCI/ADR-RES ovarian
  GI50: 28 µM
  TGI: 80.8 µM
LOX IMVI melanoma
  GI50: 29.6 µM
  TGI: > 100 µM
SF-268 CNS
  GI50: 34.5 µM
  TGI: > 100 µM
NCI-H522 lung
  GI50: 4.53 µM
  TGI: 21.4 µM
SK-OV-3 ovarian
  GI50: > 100 µM
  TGI: > 100 µM
UO-31 renal
  GI50: 27.2 µM
  TGI: 74.1 µM

## COc1ccc(OC(=O)CC2Cc3cc(OC)c(OC)c(OC)c3-c3ccc(SC)c(=O)cc32)cc1 (stereo not given)
NCI-H23 lung
  TGI: 14.9 µM
SR leukemia
  TGI: > 100 µM
LOX IMVI melanoma
  TGI: 17.8 µM
SF-268 CNS
  TGI: > 100 µM
NCI-H226 lung
  TGI: 0.782 µM
NCI-H522 lung
  TGI: 0.527 µM
SK-OV-3 ovarian
  TGI: 61.4 µM
UO-31 renal
  TGI: > 100 µM

## O=C1c2ccccc2N2OC3(N4CCCC4)CCCCC3C12c1ccccc1 (stereo not given)
NCI-H23 lung
  TGI: 86 µM
SR leukemia
  TGI: > 100 µM
SF-268 CNS
  TGI: 33.7 µM
NCI-H226 lung
  TGI: > 100 µM
NCI-H522 lung
  TGI: 29.1 µM
SK-OV-3 ovarian
  TGI: > 100 µM
UO-31 renal
  TGI: > 100 µM
